The target of the experiment is T1, RET V804M (Homo sapiens, UniProt P07949, V804M).
T1 construct: purchased Thermo Fisher Scientific (Life Technologies) SelectScreen
Description: SelectScreen LanthaScreen. The experiment is classed as binding. The following applies: read-out: % displacement. Put shortly:
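NU5455 was profiled across the SelectScreen Broad panel of kinase activity and binding assays. Z'LYTE reactions such as CSF1R ran at apparent Km ATP, while the Adapta CAMK1 assay used ATP listed as 10. Values are given as percent.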
On the technique in general: Time-resolved FRET reads energy transfer from a long-lived donor to a nearby acceptor.

SMILES strings stand for the structures.

T1 sequence (P07949 29-1114 V804M): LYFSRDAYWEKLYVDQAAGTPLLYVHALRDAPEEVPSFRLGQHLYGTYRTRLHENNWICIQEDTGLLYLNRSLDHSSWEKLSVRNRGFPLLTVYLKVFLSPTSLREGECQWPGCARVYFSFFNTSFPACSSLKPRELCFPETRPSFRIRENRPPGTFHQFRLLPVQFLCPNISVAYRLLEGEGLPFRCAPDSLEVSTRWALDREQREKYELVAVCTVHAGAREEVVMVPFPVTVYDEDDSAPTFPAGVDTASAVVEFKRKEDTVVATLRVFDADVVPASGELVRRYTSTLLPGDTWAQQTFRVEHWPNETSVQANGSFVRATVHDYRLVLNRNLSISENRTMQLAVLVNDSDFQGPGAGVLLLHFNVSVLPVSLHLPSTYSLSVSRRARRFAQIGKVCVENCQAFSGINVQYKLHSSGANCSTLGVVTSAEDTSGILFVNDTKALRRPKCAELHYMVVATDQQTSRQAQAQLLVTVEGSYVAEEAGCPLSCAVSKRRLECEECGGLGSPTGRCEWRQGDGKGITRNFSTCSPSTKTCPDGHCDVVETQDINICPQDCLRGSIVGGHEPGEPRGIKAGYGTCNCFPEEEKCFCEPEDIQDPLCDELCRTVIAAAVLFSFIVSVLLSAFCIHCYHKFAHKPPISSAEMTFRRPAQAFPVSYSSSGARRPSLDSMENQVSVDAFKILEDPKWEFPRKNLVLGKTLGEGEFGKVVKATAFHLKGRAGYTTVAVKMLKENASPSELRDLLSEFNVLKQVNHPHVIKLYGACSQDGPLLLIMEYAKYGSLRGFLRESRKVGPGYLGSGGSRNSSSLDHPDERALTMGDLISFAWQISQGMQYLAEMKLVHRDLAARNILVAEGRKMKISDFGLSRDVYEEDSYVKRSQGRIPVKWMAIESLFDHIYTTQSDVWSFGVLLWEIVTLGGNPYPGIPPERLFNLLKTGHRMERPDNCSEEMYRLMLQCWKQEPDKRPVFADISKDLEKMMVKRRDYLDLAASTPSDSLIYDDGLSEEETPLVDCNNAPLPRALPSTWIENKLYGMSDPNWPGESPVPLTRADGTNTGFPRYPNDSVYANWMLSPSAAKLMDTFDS

For `CN(C(=O)CN1CCOCC1)c1ccc2sc3c(-c4cccc5c(=O)cc(N6CC7CCC(C6)O7)oc45)cccc3c2c1` [NU5455], the inhibition at 1 µM was found to be 11.3%.

Source of the values: publication PMC6934184, “Selective DNA-PKcs inhibition extends the therapeutic index of localized radiotherapy and chemotherapy” (The Journal of Clinical Investigation, 2019).
